In publication PMC9917201, “Enhanced Antibacterial Activity of Substituted Derivatives of NCR169C Peptide” (International Journal of Molecular Sciences, 2023):
≈ marks a conversion by molar mass, not a printed value. Read-outs that look alike come from different tables or passages of the source. Non-standard residues stand in square brackets, D forms with d. Residues, ends and D or L forms follow the SMILES beside them. ξ: configuration not given here. Trp(5-F) = N[C@@H](Cc1c[nH]c2ccc(F)cc12)C(=O)O; ξTrp(5-OMe) = COc1ccc2[nH]cc(CC(N)C(=O)O)c2c1; ξTrp(5-Me) = Cc1ccc2[nH]cc(CC(N)C(=O)O)c2c1; ξTrp(7-aza) = NC(Cc1c[nH]c2ncccc12)C(=O)O

Legend:
Assay type in all cases: cell-based
[1] = system: Acinetobacter baumannii (ATCC 17978); conditions: ATCC 17978, 3 h, pH 7.4
Text: (§1) The bacterial strains for the antimicrobial assay were obtained from the ATCC (American Type Culture Collection, Manassas, VA, USA) and NCTC (National Collection of Type Cultures, Salisbury, UK). Gram-negative strains were Pseudomonas aeruginosa (ATCC 27853), Escherichia coli (ATCC 8739, ATCC 35218, and ATCC 25922), Salmonella enterica (ATCC 13076), Klebsiella pneumoniae (NCTC 13440), Acinetobacter baumannii (ATCC 17978) and the Gram-positive strains were Enterococcus faecalis (ATCC 29212), Listeria monocytogenes (ATCC 19111), and Staphylococcus aureus (HNCMO112011 and ATCC 25923).
(§2) Determination of antibacterial activity for the peptides was carried out by utilizing a minimum bactericidal concentration (MBC) bioassay. Synthesized peptides were dissolved in sterile water and used from 25 to 0.125 μM in 2-fold dilution series and incubated with ~10^7 log phase bacteria in Potassium-Phosphate Buffer (PPB, pH: 7.4) for three hours as described earlier. After that, 5 μl of each sample was placed on LB agar and the growth of bacteria was monitored after overnight incubation at 37 °C. The lowest concentration of the antimicrobial agents that completely eliminated viable bacteria was considered the minimal bactericidal concentration (MBC).

[2] = system: Enterococcus faecalis (ATCC 29212)
Text: as §1, §2

[3] = system: Escherichia coli (ATCC 8739); conditions: ATCC 8739, 3 h, pH 7.4
Text: as §1, §2

[4] = system: Klebsiella pneumoniae (NCTC 13440)
Text: as §1, §2

[5] = system: Listeria monocytogenes (ATCC 19111)
Text: as §1, §2

[6] = system: Pseudomonas aeruginosa (ATCC 27853)
Text: as §1, §2

[7] = system: Salmonella enterica (ATCC 13076); conditions: ATCC 13076, 3 h, pH 7.4
Text: as §1, §2

[8] = system: Staphylococcus aureus (HNCMO112011); conditions: HNCMO112011, 3 h, pH 7.4
Text: as §1, §2

[9] = system: tested bacteria (ESKAPE pathogens, Listeria monocytogenes, Salmonella enterica)
Text: as §1, §2

Row | Compound | Minimal bactericidal concentration (MBC) A. b. [1] [µM] | Minimal bactericidal concentration (MBC) E. f. ([2]; Enterococcus faecalis ATCC 29212, ~10^7 log phase bacteria, 3 h in potassium-phosphate buffer (PPB) pH 7.4, peptide 25 to 0.125 μM 2-fold series, 5 μl on LB agar, overnight 37 °C) [µM] | Minimal bactericidal concentration (MBC) E. c. [3] [µM] | Minimal bactericidal concentration (MBC) K. p. ([4]; NCTC 13440, 3 h, pH 7.4) [µM] | Minimal bactericidal concentration (MBC) L. m. ([5]; Listeria monocytogenes ATCC 19111, ~10^7 log phase bacteria, 3 h in PPB pH 7.4, peptide 25 to 0.125 μM 2-fold series, plated on LB agar, overnight 37 °C) [µM] | Minimal bactericidal concentration (MBC) P. a. ([6]; ATCC 27853, 3 h, pH 7.4) [µM] | Minimal bactericidal concentration (MBC) S. e. [7] [µM] | Minimal bactericidal concentration (MBC) S. a. [8] [µM] | MBC against most or all of the tested bacteria ([9]; 3 h, pH 7.4) [µM] | Minimal bactericidal concentration (MBC) E. f. ([2]; ATCC 29212, 3 h, pH 7.4) [µM] | Minimal bactericidal concentration (MBC) L. m. ([5]; ATCC 19111, 3 h, pH 7.4) [µM] | Minimal bactericidal concentration (MBC) P. a. ([6]; Pseudomonas aeruginosa ATCC 27853, ~10^7 log phase bacteria, 3 h in PPB pH 7.4, peptide 25 to 0.125 μM 2-fold series, plated on LB agar, overnight 37 °C) [µM] | Minimal bactericidal concentration (MBC) K. p. ([4]; Klebsiella pneumoniae NCTC 13440, ~10^7 log phase bacteria, 3 h in PPB pH 7.4, peptide 25 to 0.125 μM 2-fold series, plated on LB agar, overnight 37 °C) [µM] | MBC against most or all of the tested bacteria ([9]; summary over the tested bacterial species, 3 h in PPB pH 7.4)
1 | CC[C@H](C)[C@H](NC(=O)[C@H](CCCCN)NC(=O)[C@H](Cc1ccccc1)NC(=O)[C@H](CC(C)C)NC(=O)[C@@H]1CCCN1C(=O)[C@H](CCCCN)NC(=O)[C@H](CCCCN)NC(=O)[C@H](CO)NC(=O)[C@@H](N)CCCCN)C(=O)N[C@@H](Cc1c[nH]c2ccccc12)C(=O)N[C@@H](CCCCN)C(=O)N[C@@H](CO)C(=O)N[C@H](C(=O)N[C@@H](CCC(=O)O)C(=O)N[C@@H](CC(N)=O)C(=O)N[C@H](C(=O)N[C@@H](CO)C(=O)N[C@H](C(=O)N[C@@H](CC(C)C)C(=O)NC(Cc1c[nH]c2ncccc12)C(=O)N[C@@H](Cc1ccc(O)cc1)C(=O)N[C@@H](CCCCN)C(N)=O)C(C)C)C(C)C)C(C)C (some centres unmarked) [NCR169C17–38C12,17/S-20W^7-Aza I] (H-KSKKPLFKIWKSVENVSVL[ξTrp(7-aza)]YK-NH2; N-terminus assumed) | 6.3 (≈ 17.1 µg/mL) | 25 (≈ 67.7 µg/mL) | 3.1 (≈ 8.4 µg/mL) | 6.3 (≈ 17.1 µg/mL) | 25 (≈ 67.7 µg/mL) | 6.3 (≈ 17.1 µg/mL) | 6.3 (≈ 17.1 µg/mL) | 6.3 (≈ 17.1 µg/mL) | 6.3 | – | – | – | – | –
2 | CC[C@H](C)[C@H](NC(=O)[C@H](CCCCN)NC(=O)[C@H](Cc1ccccc1)NC(=O)[C@H](CC(C)C)NC(=O)[C@@H]1CCCN1C(=O)[C@H](CCCCN)NC(=O)[C@H](CCCCN)NC(=O)[C@H](CO)NC(=O)[C@@H](N)CCCCN)C(=O)N[C@@H](Cc1c[nH]c2ccccc12)C(=O)N[C@@H](CCCCN)C(=O)N[C@@H](CO)C(=O)N[C@H](C(=O)N[C@@H](CCC(=O)O)C(=O)N[C@@H](CC(N)=O)C(=O)N[C@H](C(=O)N[C@@H](CO)C(=O)N[C@H](C(=O)N[C@@H](CC(C)C)C(=O)NC(Cc1c[nH]c2ncccc12)C(=O)N[C@@H](Cc1ccc(O)cc1)C(=O)N[C@@H](CCCCN)C(N)=O)C(C)C)C(C)C)C(C)C (some centres unmarked) [NCR169C17–38C12,17/S-20W^7-Aza II] (H-KSKKPLFKIWKSVENVSVL[ξTrp(7-aza)]YK-NH2; N-terminus assumed) | 12.5 (≈ 33.9 µg/mL) | – | 12.5 (≈ 33.9 µg/mL) | 12.5 (≈ 33.9 µg/mL) | – | 12.5 (≈ 33.9 µg/mL) | 12.5 (≈ 33.9 µg/mL) | 12.5 (≈ 33.9 µg/mL) | 12.5 | 12.5 (≈ 33.9 µg/mL) | 12.5 (≈ 33.9 µg/mL) | – | – | –
3 | CC[C@H](C)[C@H](NC(=O)[C@H](CCCCN)NC(=O)[C@H](Cc1ccccc1)NC(=O)[C@H](CC(C)C)NC(=O)[C@@H]1CCCN1C(=O)[C@H](CCCCN)NC(=O)[C@H](CCCCN)NC(=O)[C@H](CO)NC(=O)[C@@H](N)CCCCN)C(=O)NC(Cc1c[nH]c2ccc(OC)cc12)C(=O)N[C@@H](CCCCN)C(=O)N[C@@H](CO)C(=O)N[C@H](C(=O)N[C@@H](CCC(=O)O)C(=O)N[C@@H](CC(N)=O)C(=O)N[C@H](C(=O)N[C@@H](CO)C(=O)N[C@H](C(=O)N[C@@H](CC(C)C)C(=O)N[C@@H](Cc1c[nH]c2ccccc12)C(=O)N[C@@H](Cc1ccc(O)cc1)C(=O)N[C@@H](CCCCN)C(N)=O)C(C)C)C(C)C)C(C)C (some centres unmarked) [NCR169C17–38C12,17/S-10W^5-MeO II] (H-KSKKPLFKI[ξTrp(5-OMe)]KSVENVSVLWYK-NH2; N-terminus assumed) | 3.1 (≈ 8.49 µg/mL) | – | 3.1 (≈ 8.49 µg/mL) | 3.1 (≈ 8.49 µg/mL) | – | – | 3.1 (≈ 8.49 µg/mL) | 3.1 (≈ 8.49 µg/mL) | 3.1 | 3.1 (≈ 8.49 µg/mL) | 3.1 (≈ 8.49 µg/mL) | 25 (≈ 68.4 µg/mL) | – | –
4 | CC[C@H](C)[C@H](NC(=O)[C@H](CCCCN)NC(=O)[C@H](Cc1ccccc1)NC(=O)[C@H](CC(C)C)NC(=O)[C@@H]1CCCN1C(=O)[C@H](CCCCN)NC(=O)[C@H](CCCCN)NC(=O)[C@H](CO)NC(=O)[C@@H](N)CCCCN)C(=O)N[C@@H](Cc1c[nH]c2ccc(F)cc12)C(=O)N[C@@H](CCCCN)C(=O)N[C@@H](CO)C(=O)N[C@H](C(=O)N[C@@H](CCC(=O)O)C(=O)N[C@@H](CC(N)=O)C(=O)N[C@H](C(=O)N[C@@H](CO)C(=O)N[C@H](C(=O)N[C@@H](CC(C)C)C(=O)N[C@@H](Cc1c[nH]c2ccccc12)C(=O)N[C@@H](Cc1ccc(O)cc1)C(=O)N[C@@H](CCCCN)C(N)=O)C(C)C)C(C)C)C(C)C [NCR169C17–38C12,17/S-10W^5-F-L] (H-KSKKPLFKI[Trp(5-F)]KSVENVSVLWYK-NH2; N-terminus assumed) | 1.6 (≈ 4.36 µg/mL) | – | 1.6 (≈ 4.36 µg/mL) | 3.1 (≈ 8.45 µg/mL) | – | 1.6 (≈ 4.36 µg/mL) | 1.6 (≈ 4.36 µg/mL) | 1.6 (≈ 4.36 µg/mL) | 1.6 | 1.6 (≈ 4.36 µg/mL) | 1.6 (≈ 4.36 µg/mL) | – | 3.1 (≈ 8.45 µg/mL) | 1.6—6.3 µM
5 | CC[C@H](C)[C@H](NC(=O)[C@H](CCCCN)NC(=O)[C@H](Cc1ccccc1)NC(=O)[C@H](CC(C)C)NC(=O)[C@@H]1CCCN1C(=O)[C@H](CCCCN)NC(=O)[C@H](CCCCN)NC(=O)[C@H](CO)NC(=O)[C@@H](N)CCCCN)C(=O)N[C@@H](Cc1c[nH]c2ccccc12)C(=O)N[C@@H](CCCCN)C(=O)N[C@@H](CO)C(=O)N[C@H](C(=O)N[C@@H](CCC(=O)O)C(=O)N[C@@H](CC(N)=O)C(=O)N[C@H](C(=O)N[C@@H](CO)C(=O)N[C@H](C(=O)N[C@@H](CC(C)C)C(=O)NC(Cc1c[nH]c2ccc(C)cc12)C(=O)N[C@@H](Cc1ccc(O)cc1)C(=O)N[C@@H](CCCCN)C(N)=O)C(C)C)C(C)C)C(C)C (some centres unmarked) [NCR169C17–38C12,17/S-20W^5-Me I] (H-KSKKPLFKIWKSVENVSVL[ξTrp(5-Me)]YK-NH2; N-terminus assumed) | 6.3 (≈ 17.1 µg/mL) | – | 6.3 (≈ 17.1 µg/mL) | 12.5 (≈ 34 µg/mL) | – | 6.3 (≈ 17.1 µg/mL) | 6.3 (≈ 17.1 µg/mL) | 6.3 (≈ 17.1 µg/mL) | 6.3 to 12.5 | 12.5 (≈ 34 µg/mL) | 6.3 (≈ 17.1 µg/mL) | – | – | –
